Counter-ions that a name gives are not always drawn. Like-named read-outs stand apart in the source and are kept apart here.
Tests used:
rat colon = experiment: Inhibition of acetylcholine-induced contraction in isolated distal portion of colon of rat, without and with diclofenac sodium; details: for inhibition at 0.0005 µg/mL / inhibition at 0.001 µg/mL / inhibition at 0.002 µg/mL / inhibition at 0.01 µg/mL / inhibition at 0.02 µg/mL / inhibition at 0.04 µg/mL / inhibition at 0.08 µg/mL: Rattus norvegicus, Ach 100 ng/ml; for inhibition at 0.0005 µg/mL: fenpiverinium bromide 0.5 ng/ml; for inhibition at 0.001 µg/mL: fenpiverinium bromide 1.0 ng/ml; for inhibition at 0.002 µg/mL: fenpiverinium bromide 2.0 ng/ml; for inhibition at 0.01 µg/mL: pitofenone HCl 10 ng/ml; for inhibition at 0.02 µg/mL: pitofenone HCl 20 ng/ml; for inhibition at 0.04 µg/mL: pitofenone HCl 40 ng/ml; for inhibition at 0.08 µg/mL: pitofenone HCl 80 ng/ml
Procedure: In order to see the effect of NSAID on the antispasmodic activity of pitifenone hydrochloride and fenpiverinium bromide an experiment was conducted on standard isolated tissues of experimental animal. The tissue chosen for the experiment was the distal portion of colon of rat. The NSAID selected for the experiment was diclofenac sodium. The percentage inhibition of acetylcholine-induced contraction (at dosage level of 100 ng/m) was studied with varied concentration of pitofenone hydrochloride in the dose range of 10-80 nano gm/ml. […] The data obtained in the experiment is collected in Table -2.

[1] = Brogden et al, Drugs 20;24-48 (1980); cited from earlier work
[2] = cited from earlier work
[3] = in vivo; cited from earlier work
[4] = before diclofenac Na, read-out: Percentage inhibition of Ach induced contraction, before diclofenac Na
[5] = with diclofenac sodium (20 μgm/ml), read-out: Percentage inhibition of Ach induced contraction, after diclofenac Na
[6] = with diclofenac sodium 20 μg/ml, read-out: Percentage inhibition of Ach induced contraction, after diclofenac Na

C[N+]1(CCC(C(N)=O)(c2ccccc2)c2ccccc2)CCCCC1 [Fenpiverinium Bromide, fenpiverinium bromide]
inhibition at 0.0005 µg/mL (rat colon; [4]): 43.8%
inhibition at 0.0005 µg/mL (rat colon; [5]): 100%
inhibition at 0.001 µg/mL (rat colon; [4]): 78.7%
inhibition at 0.001 µg/mL (rat colon; [5]): 100%
inhibition at 0.002 µg/mL (rat colon; [4]): 100%
inhibition at 0.002 µg/mL (rat colon; [5]): 100%

O=C(O)Cc1ccccc1Nc1c(Cl)cccc1Cl [diclofenac]
potentiation of antispasmodic action of pitofenone hydrochloride and fenpiverinium bromide (rat colon; general statement of findings): potentiates the antispasmodic action of pitofenone hydrochloride and fenpiverinium bromide several times
action with pitofenone hydrochloride as an antispasmodic (rat colon; rat colon, diclofenac sodium 20 μg/ml, pitofenone HCl 10-80 ng/ml): synergistic (potentiating) action
action with fenpiverinium bromide as an antispasmodic (rat colon; rat colon, diclofenac sodium 20 μgm/ml, fenpiverinium bromide 0.5-2 ng/ml): synergistic (potentiating) action
reported pharmacological activity [1]: anti inflammatory activity, analgesic activity and anti pyretic activity
use in painful non-rheumatic syndromes ([2]; biliary colic (Grossi et al.), acute renal colic (Garcia Alonso et al.)): of use in painful non-rheumatic syndromes

COC(=O)c1ccccc1C(=O)c1ccc(OCCN2CCCCC2)cc1 [Pitofenone Hcl, pitofenone hydrochloride]
inhibition at 0.01 µg/mL (rat colon; [4]): 0%
inhibition at 0.01 µg/mL (rat colon; [6]): 100%
inhibition at 0.02 µg/mL (rat colon; [4]): 0%
inhibition at 0.02 µg/mL (rat colon; [6]): 100%
inhibition at 0.04 µg/mL (rat colon; [4]): 0%
inhibition at 0.04 µg/mL (rat colon; [6]): 100%
inhibition at 0.08 µg/mL (rat colon; [4]): 20.2%
inhibition at 0.08 µg/mL (rat colon; [6]): 100%

Cc1c(N(C)CS(=O)(=O)O)c(=O)n(-c2ccccc2)n1C [Analgin]
bone marrow depression [3]: implicated in causing bone marrow depression

O=C(O)Cc1ccccc1Nc1c(Cl)cccc1Cl [diclofenac sodium]
side effects vs pethidine intramuscular ([2]; intramuscular, acute renal colic): fewer side effects
effectiveness in the management of acute renal colic vs pethidine intramuscular ([2]; intramuscular): more effective than narcotic analgesic like pethidine intramuscular

— patent US5876751A, “Antispasmodic and antinflammatory composition and a process for the manufacture thereof” (priority 1996, dated 1999)
